These results are taken from patent US7977379B2, “Method for angiogenesis inhibition or immunostimulation” (priority 2002, dated 2011).

Assay [1] has as its system angiogenesis induced by means of MATRIGEL matrix (heparin, a-FGF). As to the kind of experiment: Test Example 1: angiogenesis induced by […] matrix transplanted subcutaneously (method of Passaniti et al). The format is in vivo, C57BL/6 female mice. To be noted: for angiogenesis inhibition effect (in words): MATRIGEL weight and hemoglobin vs control group; for MATRIGEL Matrix weight / Quantity of hemoglobin: sixth day, n=5, mean±SE; for MATRIGEL Matrix weight: freeze-dried. The source says: Angiogenesis inhibition action of anhydrous glutamic acid, its derivatives, and various processed materials containing them concerning the present invention was examined by degree of angiogenesis induced by means of […]™ matrix (made by Becton Dikinson Labware Company, it is “cell culture backing material”, following “[…]”.) according to a method of Passaniti et al (Laboratory Invest., Vol. 67, Page 519-528, 1992).
An example of the […] matrix is shown with the following: BD Matrigel Basement Membrane Matrix is a solubilized basement membrane preparation extracted from the Engelbreth-Holm-Swarm (EHS) mouse sarcoma, a tumor rich in ECM proteins. Its major component is laminin, followed by collagen IV, heparan sulfate proteoglycans, entactin and nidogen.35 It also contains TGF-β fibroblast growth factor, tissue plasminogen activator36 and other growth factors which occur naturally in the EHS tumor. At room temperature, BD Matrigel Matrix polymerizes to produce biologically active matrix material resembling the mammalian cellular basement membrane.
More specifically, normal mice (5 mice/1 group) were used after breeding C57BL/6 female mice (5 week old, purchased from Charles River JAPAN, Inc.) preliminarily for one week. While cooling test materials as shown in the following, each of the test materials 0.5 ml were transplanted to subcutaneous of abdomen of the mice. […] was taken out on the sixth day after transplantation, and state of angiogenesis was observed. In addition, the […] was freeze-dried, and it was estimated the weight. Furthermore, pure water 1 ml was added to the […]. After homogenizing by Polytron and centrifuging at 2000 rpm for five minutes, supernatant was filtrated through filter with 0.2 μm and hemoglobin dosage was measured by using Hemoglobin-TestWako™ (made by Wako Pure Chemical Industries, Ltd.).
Group 0 of nothing addition: […]
Control group: […], heparin (64 units), Acidic Fibroblast Growth Factor (it is abbreviated to a-FGF as follows.) (1 ng/ml)
Group 1 of test material addition: […], heparin (64 units), a-FGF (1 ng/ml), sample 3 (800 μg/ml)
Group 2 of test material addition: […], heparin (64 units), a-FGF (1 ng/ml), sample 3 (400 μg/ml)
Group 3 of test material addition: […], heparin (64 units), a-FGF (1 ng/ml), sample 3 (200 μg/ml)
Group 4 of test material addition: […], heparin (64 units), a-FGF (1 ng/ml), sample 4 (800 μg/ml)
Group 5 of test material addition: […], heparin (64 units), a-FGF (1 ng/ml), sample 1 (600 μg/ml)
Group 6 of test material addition: […], heparin (64 units), a-FGF (1 ng/ml), sample 2 (800 μg/ml)
Group 7 of test material addition: […], heparin (64 units), a-FGF (1 ng/ml), sample1+sample 3 (for each 200 μg/ml)
Group 8 of test material addition: […], heparin (64 units), a-FGF (1 ng/ml), sample 5 (600 μg/ml)
Group 9 of test material addition: […], heparin (64 units), a-FGF (1 ng/ml), reference sample 1 (800 μg/ml)
As is apparent from each table, in control group, angiogenesis was promoted remarkably and weight of […] and hemoglobin dosage were increased compared with a group 0 of nothing addition. […] However, the angiogenesis inhibition effect was small with reference sample 1 (hot water extract of an agaricus mushroom).

Assay [2] has the same test system. The assay is described as follows: Test Example 4: angiogenesis induced by […] matrix (same method as test example 1). It counts as in vivo, C57BL/6 female mice. To be noted: for angiogenesis inhibition effect (in words): MATRIGEL weight and hemoglobin vs control group; for MATRIGEL weight / Quantity of hemoglobin: sixth day, n=5, mean±SE. How it is done: More specifically, normal mice (5 mice/1 group) were used after breeding C57BL/6 female mice (5 week old, purchased from Charles River JAPAN, Inc.) preliminarily for one week. While cooling test materials as shown in the following, each of the test materials 0.5 ml were transplanted to subcutaneous of abdomen of the mice. […] was taken out on the sixth day after transplantation, and state of angiogenesis was observed. In addition, the […] was freeze-dried, and it was weighed. […] Group 0 of nothing addition: […]

The mark [3] stands for this setting: material 800 μg/mL in MATRIGEL with heparin and a-FGF.
The mark [4] stands for this setting: material 200 μg/mL in MATRIGEL with heparin and a-FGF.
The mark [5] stands for this setting: material 400 μg/mL in MATRIGEL with heparin and a-FGF.

For the compound `Cl.NC(CCC(=O)O)C(=O)O` (racemic) [sample 4, anhydrous DL-glutamate acid hydrochloride], the “angiogenesis inhibition effect (in words)” value in assay [1] is “slightly low, but almost equal to sample 3”. Moreover, in assay [1] (setting [3]), the “MATRIGEL Matrix weight” value came to 237.3 ± 30.1 mg and the Quantity of hemoglobin was found to be 13.0 ± 2.9 mg.
Turning to `O=C1CCC(C(=O)O)N1.[Na]` (racemic) [sample 9, DL-pyroglutamic acid sodium], the “angiogenesis inhibition effect (in words)” value in assay [2] is reported as “slightly low, but almost equal to sample 8”. In assay [2] (setting [3]), this compound yielded an MATRIGEL weight of 209.0 ± 30.8 mg and a Quantity of hemoglobin of 15.8 ± 2.7 mg/MATRIGEL.
Turning to `C[C@H](N)C(=O)O` [alanine, reference compound], the “angiogenesis inhibition effect (in words)” value in assay [2] was “not recognized”.
The same measure, in the same setting: under `O=C(O)[C@@H]1CCCN1` [proline, reference compound] stands “not recognized”.
In the case of `Cl.N[C@@H](CCC(=O)O)C(=O)O` [sample 3, anhydrous L-glutamate acid hydrochloride], in assay [1], the “angiogenesis inhibition effect (in words)” value is recorded as “excellent angiogenesis inhibition effect”. For the same compound, the “MATRIGEL Matrix weight” value came to 276.6 ± 27.6 mg in assay [1] (setting [4]), 232.2 ± 52.7 mg in assay [1] (setting [5]) and 110.9 ± 11.4 mg in assay [1] (setting [3]). The Quantity of hemoglobin in assay [1] (setting [4]) is listed as 21.5 ± 4.0 mg; in assay [1] (setting [5]), 15.5 ± 4.6 mg; in assay [1] (setting [3]), 3.9 ± 0.5 mg.
`O=C1CC[C@@H](C(=O)O)N1.[Na]` [sample 8, L-pyroglutamic acid sodium]: the “angiogenesis inhibition effect (in words)” value in assay [2] was “excellent angiogenesis inhibition effect”. Further, the MATRIGEL weight in assay [2] (setting [4]) is on record as 265.3 ± 18.6 mg; in assay [2] (setting [5]), 190.2 ± 30.4 mg; in assay [2] (setting [3]), 121.5 ± 28.1 mg. In addition, the Quantity of hemoglobin in assay [2] (setting [4]) is 23.4 ± 2.0 mg/MATRIGEL; in assay [2] (setting [5]) it was 17.5 ± 3.6 mg/MATRIGEL; in assay [2] (setting [3]), 4.8 ± 1.2 mg/MATRIGEL.
